Reference: patent US11541057B2, “Thienopyrimidinone NMDA receptor modulators and uses thereof” (Cadent Therapeutics, Inc., priority 2015, dated 2023)

Biological target: T1, NMDA receptor GRIN1/GRIN2B (NR2B) expressed in HEK293 cells (Homo sapiens, UniProt Q13224)
T1 construct: host or cells: HEK293
Assay: Reversal of Ro 25-6981-mediated suppression of the Ca2+ response (fluo-8 fluorescence, FDSS) in HEK293 cells expressing GRIN1 and GRIN2B
Assay type: cell-based
Settings: % reversal=100*(R−Rneg)/(Rpos−Rneg) of Ro 25-6981 suppression of co-agonist (glutamate/glycine) Ca2+ response, 10 min pre-incubation, compound concentration not given
Experimental: HEK293 cells with constructs conferring stable expression of the GRIN1 gene and tetracycline-inducible expression of the GRIN2B gene (Chantest, Cleveland, Ohio) are grown to ˜75% confluence in tissue culture flasks at 37° C., 5% CO2. NR2B expression is induced by overnight incubation with 0.3-0.4 μg/ml tetracycline in the presence of 2.5 mM ARL-15896 at 37° C., followed by moving to 30° C. for 3-5 hours. Cells are next harvested using TripleExpress™ (Life Technologies, Carlsbad, Calif.) according to the manufacturer's instructions, first removing culture medium, rinsing with Dulbecco's phosphate buffered saline (Ca^2+ and Mg^2+-free), and then adding the TripleExpress™ reagent. Harvested cells are spun down, washed twice in Ca^2+- and Mg^2+-free Hank's Balanced Salt Solution with 20 mM HEPES and 10 mM glucose, pH 7.4 (HHnoCa solution), and counted with viability assessed using Trypan Blue. Cells are loaded with fluo-8 Ca^2+-sensitive dye in HHnoCa solution according to the manufacturer's directions (AAT Bioquest, Sunnyvale, Calif.), incubating at 37° C. for 20 minutes followed by 25 minutes at 22-25° C. After a wash in HHnoCa to remove extracellular dye, cells are resuspended in HHnoCa and plated at […] cells per well in a volume of 25 μl/well in 384 well black-wall, clear bottom plates (Hamamatsu, Middlesex, N.J.). Plates are then centrifuged to create a monolayer in the wells and stored in the dark until used.
Prior to analysis, compound plates are prepared with each compound at 6× the final desired concentration. From stock solutions at 10 mM in 100% DMSO, compounds are spotted in the desired amounts using an ECHO liquid handler (Labcyte, Sunnyvale, Calif.) into wells of a 384-well plate and then diluted with 50 μl of HHnoCa containing 750 nM Ro 25-6981 and 120 μM 5,7-dichlorokynurenic acid (both purchased from Tocris Bioscience (Bristol, England) and maintained as 10 mM stock solutions in 100% DMSO). To insure complete compound dissolution, these plates are then placed in an orbital shaker for at least one hour. Also prepared prior to the assay is a co-agonist plate containing HHnoCa with 240 μM glutamate, 2.4 mM glycine, and 7.2 mM CaCl2, which is 2.4× the desired final concentration of each reagent. Both the compound plate and co-agonist plate are 384-well polypropylene plates from Thermo Fisher Scientific, Waltham, Mass.
The assay is performed by first adding 10 μl solution from each well of the compound plate described above to the cell plate using a CyBiWell liquid handler (Analytik Jena AG, Jena, Germany), followed by 10 minutes pre-incubation in the dark. Cell plates are then loaded onto a Hamamatsu FDSS 6000 plate reader. After a 30-second baseline, 25 μl is added to each well from the co-agonist plate, and the fluorescence signal is recorded for another 2 minutes. FDSS software applies shading and autofluorescence correction, and resultant raw fluorescence measurements are exported in the form of a fluorescence ratio for each well to its own reading at time zero in the experiment. In each plate, negative control wells consist of wells where Ro 25-6981 and 5,7 dichlorokynurenic acid are present and co-agonist is applied in the absence of any added assay compound. Under these conditions, the Ca^2+ response to co-agonist is suppressed. Positive control wells also present in each plate contain 5,7 dichlorokynurenic acid but no Ro 25-6981, so that co-agonist addition results in a large Ca^2+ response. Compounds tested are evaluated on the basis of their ability to reverse the suppression of the Ca^2+ response mediated by Ro 25-6981, which is quantified as % reversal=100*(R−Rneg)/(Rpos−Rneg) where R is the fluorescence ratio for the test compound at the end of the experiment and Rneg and Rpos are the end ratios for the negative and positive controls, respectively. […]

T1 sequence (Q13224 27-1484, other chains not shown): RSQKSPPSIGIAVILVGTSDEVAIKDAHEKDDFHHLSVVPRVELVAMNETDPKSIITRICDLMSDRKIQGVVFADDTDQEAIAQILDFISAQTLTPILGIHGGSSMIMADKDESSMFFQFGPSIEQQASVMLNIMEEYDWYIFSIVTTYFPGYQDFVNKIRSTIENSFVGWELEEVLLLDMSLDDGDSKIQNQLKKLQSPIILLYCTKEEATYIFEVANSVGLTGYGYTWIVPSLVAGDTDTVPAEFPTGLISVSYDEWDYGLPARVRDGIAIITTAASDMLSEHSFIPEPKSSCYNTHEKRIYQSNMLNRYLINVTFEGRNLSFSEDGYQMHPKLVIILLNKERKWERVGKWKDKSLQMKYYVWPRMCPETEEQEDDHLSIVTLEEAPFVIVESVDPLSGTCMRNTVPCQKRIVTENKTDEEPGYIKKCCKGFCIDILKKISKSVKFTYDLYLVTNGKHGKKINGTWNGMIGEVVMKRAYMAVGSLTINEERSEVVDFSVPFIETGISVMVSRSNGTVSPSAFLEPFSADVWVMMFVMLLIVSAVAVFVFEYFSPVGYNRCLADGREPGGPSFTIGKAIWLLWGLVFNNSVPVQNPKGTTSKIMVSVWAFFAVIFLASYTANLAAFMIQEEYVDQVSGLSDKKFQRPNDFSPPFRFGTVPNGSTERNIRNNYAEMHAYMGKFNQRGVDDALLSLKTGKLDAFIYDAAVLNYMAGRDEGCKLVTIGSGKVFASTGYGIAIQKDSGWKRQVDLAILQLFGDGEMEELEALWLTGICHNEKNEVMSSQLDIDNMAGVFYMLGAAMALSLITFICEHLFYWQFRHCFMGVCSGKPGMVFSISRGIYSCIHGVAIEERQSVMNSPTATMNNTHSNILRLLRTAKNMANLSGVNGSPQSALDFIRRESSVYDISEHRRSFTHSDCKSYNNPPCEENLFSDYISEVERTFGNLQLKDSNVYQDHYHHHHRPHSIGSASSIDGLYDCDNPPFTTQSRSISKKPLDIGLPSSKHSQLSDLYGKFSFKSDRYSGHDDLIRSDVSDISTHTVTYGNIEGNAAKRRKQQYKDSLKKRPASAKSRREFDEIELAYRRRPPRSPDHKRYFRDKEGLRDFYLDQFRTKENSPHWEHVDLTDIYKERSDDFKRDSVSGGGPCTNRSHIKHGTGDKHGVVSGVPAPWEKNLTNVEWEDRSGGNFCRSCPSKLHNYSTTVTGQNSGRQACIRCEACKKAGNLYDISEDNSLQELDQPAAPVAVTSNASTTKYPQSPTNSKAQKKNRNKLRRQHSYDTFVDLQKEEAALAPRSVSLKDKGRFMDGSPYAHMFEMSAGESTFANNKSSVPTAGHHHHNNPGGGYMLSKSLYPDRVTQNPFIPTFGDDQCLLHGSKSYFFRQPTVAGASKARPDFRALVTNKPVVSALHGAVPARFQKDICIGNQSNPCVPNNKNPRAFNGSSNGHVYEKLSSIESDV

Row | Response Recovered (%) | SMILES
1 | 16% | O=C(Cn1cnc2scc(-c3ccc(OC(F)(F)F)cc3)c2c1=O)N1CCCC1 [Example 34, 3-[2-oxo-2-(pyrrolidin-1-yl)ethyl]-5-[4-(trifluoromethoxy)phenyl]-3H,4H-thieno[2,3-d]pyrimidin-4-one]
2 | 61% | O=C(Cn1cnc2scc(-c3ccc(Cl)c(Cl)c3)c2c1=O)N1CCCC1 [Example 37, 5-(3,4-dichlorophenyl)-3-[2-oxo-2-(pyrrolidin-1-yl)ethyl]-3H,4H-thieno[2,3-d]pyrimidin-4-one]
3 | 10% | O=C(Cn1cnc2scc(-c3ccc(C(F)(F)F)cc3F)c2c1=O)N1CCCC1 [Example 38]
4 | 3% | O=C(Cn1cnc2scc(-c3ccc(F)c(F)c3)c2c1=O)N1CCCC1 [Example 42, 5-(3,4-difluorophenyl)-3-[2-oxo-2-(pyrrolidin-1-yl)ethyl]-3H,4H-thieno[2,3-d]pyrimidin-4-one]
5 | 8% | O=C(Cn1cnc2scc(-c3ccc(C(F)(F)F)cc3Cl)c2c1=O)N1CCCC1 [Example 43, 5-[2-chloro-4-(trifluoromethyl)phenyl]-3-[2-oxo-2-(pyrrolidin-1-yl)ethyl]-3H,4H-thieno[2,3-d]pyrimidin-4-one]
6 | −1% | O=C(Cn1cnc2scc(-c3ccnc(C(F)(F)F)c3)c2c1=O)N1CCCC1 [Example 46, 3-[2-oxo-2-(pyrrolidin-1-yl)ethyl]-5-[2-(trifluoromethyl)pyridin-4-yl]-3H,4H-thieno[2,3-d]pyrimidin-4-one]
7 | 43% | O=C(Cn1cnc2scc(-c3ccc(F)c(C(F)(F)F)c3)c2c1=O)N1CCCC1 [Example 47, 5-[4-fluoro-3-(trifluoromethyl)phenyl]-3-[2-oxo-2-(pyrrolidin-1-yl)ethyl]-3H,4H-thieno[2,3-d]pyrimidin-4-one]
8 | 9% | Cc1cc(C(F)(F)F)ccc1-c1csc2ncn(CC(=O)N3CCCC3)c(=O)c12 [Example 50]
9 | 27% | O=C(Cn1cnc2scc(-c3cccc(OC(F)(F)F)c3)c2c1=O)N1CCCC1 [Example 51, 3-[2-oxo-2-(pyrrolidin-1-yl)ethyl]-5-[3-(trifluoromethoxy)phenyl]-3H,4H-thieno└2,3-d┘pyrimidin-4-one]
10 | 20% | O=C(Cn1cnc2scc(-c3cc(C(F)(F)F)ccc3F)c2c1=O)N1CCCC1 [Example 54, 5-[2-fluoro-5-(trifluoromethyl)phenyl]-3-[2-oxo-2-(pyrrolidin-1-yl)ethyl]-3H,4H-thieno[2,3-d]pyrimidin-4-one]
11 | 33% | O=C(Cn1cnc2scc(-c3cccc(C(F)(F)F)c3)c2c1=O)N1CCCC1 [Example 55, 3-[2-oxo-2-(pyrrolidin-1-yl)ethyl]-5-[3-(trifluoromethyl)phenyl]-3H,4H-thieno[2,3-d]pyrimidin-4-one]

The remaining lines, values behind:

Row | SMILES | Response Recovered (%)
12 | Cn1nccc1-c1csc2ncn(CC(=O)N3CCCC3)c(=O)c12 [Example 33, 5-(1-methyl-1H-pyrazol-5-yl)-3-[2-oxo-2-(pyrrolidin-1-yl)ethyl]-3H,4H-thieno[2,3-d]pyrimidin-4-one] | 1%
13 | CC(C)(C)c1ccc(-c2csc3ncn(CC(=O)N4CCCC4)c(=O)c23)cc1 [Example 35, 5-(4-tert-butylphenyl)-3-[2-oxo-2-(pyrrolidin-1-yl)ethyl]-3H,4H-thieno[2,3-d]pyrimidin-4-one] | 14%
14 | COc1ccc(-c2csc3ncn(CC(=O)N4CCCC4)c(=O)c23)cn1 [Example 36, 5-(6-methoxypyridin-3-yl)-3-[2-oxo-2-(pyrrolidin-1-yl)ethyl]-3H,4H-thieno[2,3-d]pyrimidin-4-one] | 2%
15 | O=C(Cn1cnc2scc(-c3cncc(F)c3)c2c1=O)N1CCCC1 [Example 39, 5-(5-fluoropyridin-3-yl)-3-[2-oxo-2-(pyrrolidin-1-yl)ethyl]-3H,4H-thieno└2,3-d┘pyrimidin-4-one] | 3%
16 | O=C(Cn1cnc2scc(-c3cncnc3)c2c1=O)N1CCCC1 [Example 40, 3-[2-oxo-2-(pyrrolidin-1-yl)ethyl]-5-(pyrimidin-5-yl)-3H,4H-thieno[2,3-d]pyrimidin-4-one] | 1%
17 | COc1ccc(-c2csc3ncn(CC(=O)N4CCCC4)c(=O)c23)cc1 [Example 41, 5-(4-methoxyphenyl)-3-[2-oxo-2-(pyrrolidin-1-yl)ethyl]-3H,4H-thieno[2,3-d]pyrimidin-4-one] | 5%
18 | COc1ccc(C(F)(F)F)cc1-c1csc2ncn(CC(=O)N3CCCC3)c(=O)c12 [Example 44, 5-[2-methoxy-5-(trifluoromethyl)phenyl]-3-[2-oxo-2-(pyrrolidin-1-yl)ethyl]-3H,4H-thieno[2,3-d]pyrimidin-4-one] | 4%
19 | O=C(Cn1cnc2scc(-c3cccc(Cl)c3Cl)c2c1=O)N1CCCC1 [Example 45, 5-(2,3-dichlorophenyl)-3-[2-oxo-2-(pyrrolidin-1-yl)ethyl]-3H,4H-thieno[2,3-d]pyrimidin-4-one] | 7%
20 | O=C(Cn1cnc2scc(-c3cc(C(F)(F)F)cc(C(F)(F)F)c3)c2c1=O)N1CCCC1 [Example 48, 5-[3,5-bis(trifluoromethyl)phenyl]-3-[2-oxo-2-(pyrrolidin-1-yl)ethyl]-3H,4H-thieno[2,3-d]pyrimidin-4-one] | −1%
21 | CN(C)c1ccc(-c2csc3ncn(CC(=O)N4CCCC4)c(=O)c23)cc1 [Example 49, 5-[4-(dimethylamino)phenyl]-3-[2-oxo-2-(pyrrolidin-1-yl)ethyl]-3H,4H-thieno[2,3-d]pyrimidin-4-one] | 0%
22 | O=C(Cn1cnc2scc(-c3ccccc3Cl)c2c1=O)N1CCCC1 [Example 52, 5-(2-chlorophenyl)-3-[2-oxo-2-(pyrrolidin-1-yl)ethyl]-3H,4H-thieno[2,3-d]pyrimidin-4-one] | 4%
23 | O=C(Cn1cnc2scc(-c3ccc(F)cc3Cl)c2c1=O)N1CCCC1 [Example 53, 5-(2-chloro-4-fluorophenyl)-3-[2-oxo-2-(pyrrolidin-1-yl)ethyl]-3H,4H-thieno└2,3-d┘pyrimidin-4-one] | 5%
24 | CC(C(=O)N1CCCC1)n1cnc2scc(-c3ccc(Cl)c(C(F)(F)F)c3)c2c1=O (stereo not shown) [Example 56, 5-[4-chloro-3-(trifluoromethyl)phenyl]-3-[1-oxo-1-(pyrrolidin-1-yl)propan-2-yl]-3H,4H-thieno[2,3-d]pyrimidin-4-one] | 0%
25 | CC(C(=O)N1CCCC1)n1cnc2scc(-c3ccc(F)c(Cl)c3)c2c1=O (stereo not shown) [Example 57, 5-(3-chloro-4-fluorophenyl)-3-[1-oxo-1-(pyrrolidin-1-yl)propan-2-yl]-3H,4H-thieno[2,3-d]pyrimidin-4-one] | 3%
26 | O=C(Cn1cnc2scc(-c3ccc(F)c(Cl)c3)c2c1=O)N1CCC(F)C1 (stereo not shown) [Example 58, 5-(3-chloro-4-fluorophenyl)-3-[2-(3-fluoropyrrolidin-1-yl)-2-oxoethyl]-3H,4H-thieno[2,3-d]pyrimidin-4-one] | 65%
27 | O=C(Cn1cnc2scc(-c3ccc(Cl)c(F)c3)c2c1=O)N1CCC(F)C1 (stereo not shown) [Example 59, 5-(4-chloro-3-fluorophenyl)-3-[2-(3-fluoropyrrolidin-1-yl)-2-oxoethyl]-3H,4H-thieno[2,3-d]pyrimidin-4-one] | 43%
28 | O=C(Cn1cnc2scc(-c3ccc(Cl)c(Cl)c3)c2c1=O)N1CCC(F)C1 (stereo not shown) [Example 60, 5-(3,4-dichlorophenyl)-3-[2-(3-fluoropyrrolidin-1-yl)-2-oxoethyl]-3H,4H-thieno[2,3-d]pyrimidin-4-one] | 98%
